Test results reported in patent EP3403652A1, “PREVENTION AND TREATMENT OF FIBROBLAST GROWTH FACTOR 23 (FGF23)-ASSOCIATED DISORDERS INCLUDING CHRONIC KIDNEY DISEASE (CKD)” (Veterinärmedizinische Universität Wien, priority 2017, dated 2018).

Tests used:
[1] = tested on: renal distal tubules; experiment: Intracellular Ca2+ imaging by 2-photon microscopy in Fluo-4-loaded live kidney slices ex vivo; assay type: cell-based, mice; settings: Klotho/VDR kidney slices; co-treatment with 200 ng/ml rFGF23, 2 h; ruthenium red 10 µM; closantel 30 ng/mL; PD173074 10 nM (iFGFR1) or 25 nM (FGFR1/3); iFGFR pan 120 nM
Procedure: (§1) The preparation of kidney slices for ex vivo experiments was performed as described in Andrukhova O et al. (EMBO J., 2014. 33, 229-246). Longitudinal 200-µm-thick live slices from freshly isolated kidneys of 3-month-old male WT and Klotho/VDR mice were prepared using a Leica VT1000 Vibratome (Leica Microsystems), and were used for ex vivo treatment with various substances as described below.
(§2) Longitudinal 200-µm-thick live slices of freshly isolated kidneys were prepared using a Leica VT1000 Vibratome (Leica Microsystems). For Na^+ imaging, the kidney slices of WT and Klotho/VDR mice were incubated for 60 min at 37°C with 2 µM of the sodium-sensitive dye SBFI (Molecular Probes), diluted in DMSO (Merck Millipore International) and 20% Pluronic (Merck Millipore International). For Ca^2+ imaging, the kidney slices were incubated for 30 min at 37°C with 2 µM of the calcium-sensitive dye Fluo-4 (Molecular Probes), diluted in DMSO and 20% Pluronic. Thereafter, the slices were washed two times for 20 min each in 0.1M PBS, and were subsequently incubated in vitro with vehicle (PBS), rFGF23 R176/179Q [(100 or 200 ng/ml) kindly provided by Amgen Inc., Thousand Oaks, CA, USA], PD173074 (Sigma-Aldrich) (10 nM for inhibiting FGFR1 and 25 nM for inhibiting FGFR1 and 3), pan FGFR inhibitor [(120 nM) FIIN1 hydrochloride, Tocris Bioscience, Bristol, UK)], WNK signalling inhibitor Closantel (30 ng/mL, generous gift of Dario R. Alessi) alone or combined at 37°C, 5% CO2 / 95% air humidified atmosphere for 2 h. […] For visualization of intracellular Na^+ and Ca^2+ content, SBFI or Fluo-4 were excited by a Ti:sapphire laser (Chameleon, Coherent Inc.) at 820 nm. Images (512 × 512 pixels) were acquired every 30 sec at a depth of 60 - 80 µm. Fluorescence images were analyzed using Image J software. The whole epithelial layer of the distal tubules was selected by manually drawing the region of interest (ROI) to quantify intracellular Na^+ and Ca^2+ levels. Fluorescence intensity was quantified in 4-9 ROIs per image, and the ratio between the fluorescence intensity and the ROI area was calculated for each tubule. This ratio was used for all subsequent calculations.
(§3) To gain more insight into the functional role of the rFGF23-induced increase in distal renal tubular ion channel expression and the FGF receptors involved, we performed intracellular Ca^2+ and Na^+ imaging by 2-photon microscopy in Fluo-4- or SFBI-loaded and subsequently rFGF23-treated (100 or 200 ng/ml for 2 h), 200-µm-thick renal slices prepared from WT and Klotho/VDR mice.
(§4) In this example it was assessed whether the Klotho-independent FGF23 signalling pathway is mediated through FGFR3 and/or 4, given that FGFR2 expression was low in distal renal tubules (Figure 12A). To dissect between the latter receptors, Klotho/VDR kidney slices were treated with rFGF23 alone or in combination with an FGFR1/FGFR3 inhibitor and the WNK signalling inhibitor closantel.

[2] = tested on: renal distal tubules; experiment: Intracellular Na+ imaging by 2-photon microscopy in SBFI-loaded live kidney slices ex vivo; assay type: cell-based, mice; settings: Klotho/VDR kidney slices; co-treatment with 200 ng/ml rFGF23, 2 h; closantel 30 ng/mL; BF 15 µM; PD173074 10 nM (iFGFR1) or 25 nM (FGFR1/3); iFGFR pan 120 nM
Procedure: as §1, §2, §3, §4

[3] = tested on: 5/6 Nx (CKD) WT mice; experiment: 5/6 nephrectomy CKD model, closantel orally via the diet over 8 weeks; assay type: in vivo
Procedure: The 5/6 nephrectomy (5/6 Nx) was performed in two stages (Leelahavanichkul A et al., Kidney Int. 78, 2010. 1136-1153) under isoflurane anesthesia (Fig. 1A). Pain was managed by s.c. injections of buprenorphine, metamizol and meloxicam. Additionally, the animals were treated for 3 days postsurgery with the analgesic piritramid via the drinking water, starting 6 h postsurgery. At the first stage (wk -1), the left kidney was decapsulated to avoid ureter and adrenal damage, and the upper and lower poles were partially resected via a left flank incision. Bleeding was controlled by microfibrillar collagen hemostasis (Avitene, Davol, Cranston, RI). The upper and lower poles were weighed. One week later, the entire right kidney was removed via a right flank incision and weighed. Animals with insufficient kidney resection as determined by a ratio of < 0.55 for the removed left kidney weight to the removed right kidney weight were euthanized. In the Sham surgery control mice, a left flank incision was performed at step 1, both poles of kidney were identified, then the flank incision was closed; a subsequent right flank incision was performed at step 2; the right renal artery was identified, then the flank incision was closed. After each flank incision, muscles and skin were repositioned and sewed. Mortality was tracked throughout the study. Necropsy was not performed on animals that died early.
For this experiment, WT Sham and 5/6-Nx mice were fed powdered rescue diet throughout the study. Closantel (Abcam) was dissolved in 100% ethanol (vehicle), and mixed into the moistened diet. To achieve a loading dose of 5 mg/kg body weight, the drug was mixed into the food at an initial concentration of 30 mg/kg diet. […] All mice were killed 8 weeks postsurgery.
Central arterial pressure and cardiac hemodynamic parameters were assessed using a SPR-671NR pressure catheter (1.4 French; Millar Instruments). Mice were anesthetized with 1.5% isoflurane in oxygen. The catheter was inserted into the ascending aorta for measurement of central arterial pressure. Parameters of LV function (i.e., maximum rate of the pressure rise, contractility index, end-diastolic pressure, and isovolumetric relaxation time) were measured by placing the catheter into the left ventricle. All pressure recordings were performed at the same anesthesia level. Hemodynamic measurements were recorded over 5 min, and traces were analyzed using LabChartPro software and a blood pressure (BP) module. After pressure measurements, all animals were euthanized.
The blood volume was determined from plasma volume and hematocrit as described in Lee H B & Blaufox M D (J. Nucl. Med., 1985. 26, 72-76). Plasma volume was determined by Evans blue dye dilution (Barron W M et al., J. Clin. Invest, 1984. 73, 923-932). Briefly, 20 µl of a 0.4% (wt/vol) solution of Evans blue (Sigma) in sterile physiological saline was injected into a tail vein. Blood samples (10 µl) were collected at 10 min and 30 min after injection to measure disappearance kinetics. Tubes were centrifuged and the hematocrit was recorded. Evans blue concentration in the plasma was measured in duplicate as optical density using the 2-wavelength method.
Total kidney homogenates, kidney cortex homogenates or total cell membrane preparations were solubilized in Laemmli sample buffer, fractionated on SDS- PAGE (30 µg/well) and transferred to a nitrocellulose membrane (Thermo Scientific). […] After washing, membranes were incubated with horseradish peroxidase-conjugated secondary antibodies (Amersham Life Sciences). Specific signal was visualized by ECL kit (Amersham Life Sciences). The protein bands were quantified by Image Quant 5.0 software (Molecular Dynamics). Loading of the samples was normalized to Ponceau S stain. The expression levels were normalized to β-actin expression. […]

[4] = biological target: WNK-regulated kinase SPAK (Ste20-like proline/alanine-rich kinase) (Homo sapiens, UniProt Q9UEW8); settings: literature (Kikuchi et al. 2014); cited from earlier work
[5] = in vivo, cited from earlier work
[6] = Western blotting, renal total homogenates, CKD mice, 8 weeks postsurgery
[7] = oral via diet once a week, 8 weeks postsurgery

With Cc1cc(C(C#N)c2ccc(Cl)cc2)c(Cl)cc1NC(=O)c1cc(I)cc(I)c1O (centres unmarked) [closantel, N-[5-chloro-4-[(4-chlorophenyl)-cyanomethyl]-2-methylphenyl]-2-hydroxy-3,5-diiodobenzamide] the “rFGF23-induced increase in intracellular Ca^2+ fluorescence (distal tubular Ca^2+ uptake)” value [1] was “abrogated”, the “rFGF23-induced increase in intracellular Na^+ fluorescence (distal tubular Na^+ uptake)” value [2] was “abrogated” and the “urinary excretion of Na^+” value ([3]; CKD mice, 8 weeks postsurgery) was “increased”. For the same compound, the “disease progression in CKD mice” value ([3]; Figure 13 legend, oral via diet once a week over 8 weeks) was “largely protects”, the “renal pNCC expression” value [3, 6] was “downregulation” and the “renal pNKCC expression” value [3, 6] was “downregulation”. For the same compound, the “renal pWNK1 expression” value [3, 6] was “downregulation”, the “CKD-induced increase in HW/BW ratio” value [3, 7] was “largely prevented” and the “CKD-induced increase in blood pressure” value [3, 7] was “largely prevented”. For the same compound, the “CKD-induced increase in blood volume” value [3, 7] was “largely prevented”, the “CKD-driven decline in GFR” value ([3]; oral via diet once a week, loading dose 5 mg/kg body weight, 8 weeks postsurgery) was “largely prevented” and the “inhibition of the WNK-regulated kinase SPAK” value [4] was “potent inhibitors”. The bioavailability ([5]; po) was ~50% and the plasma half-life [5] was 14 days.
